Measured values published in US9540391B2, “Isomannide derivatives as inhibitors of soluble epoxide hydrolase” (SANOFI, priority 2013, dated 2017).
Where a name gives a salt, the structure may show the parent alone.

The compounds below were run against T1, recombinant sEH (Homo sapiens, UniProt P34913) (assay: biochemical screening assay for inhibition of soluble epoxide hydrolase (fluorometric, Phome substrate)).
T1 construct: made in house; host or cells: Sf9 insect cells
T1 sequence (P34913 1-555): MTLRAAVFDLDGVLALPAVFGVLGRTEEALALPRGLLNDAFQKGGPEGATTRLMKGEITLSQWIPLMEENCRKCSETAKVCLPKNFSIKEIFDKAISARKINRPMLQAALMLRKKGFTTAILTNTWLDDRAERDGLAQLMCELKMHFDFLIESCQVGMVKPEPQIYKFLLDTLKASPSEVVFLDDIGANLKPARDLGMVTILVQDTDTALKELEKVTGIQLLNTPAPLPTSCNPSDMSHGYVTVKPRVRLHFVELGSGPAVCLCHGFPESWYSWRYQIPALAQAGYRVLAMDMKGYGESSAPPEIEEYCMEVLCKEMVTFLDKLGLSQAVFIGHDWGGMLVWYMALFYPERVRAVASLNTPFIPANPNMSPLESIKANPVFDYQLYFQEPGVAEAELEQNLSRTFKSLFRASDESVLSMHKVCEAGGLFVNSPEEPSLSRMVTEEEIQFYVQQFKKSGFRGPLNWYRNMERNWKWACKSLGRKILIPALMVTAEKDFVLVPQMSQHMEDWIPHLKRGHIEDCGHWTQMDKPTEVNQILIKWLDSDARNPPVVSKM
How it was run: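 Reading fluorescence before substrate addition and after completion corrected for autofluorescence. Reaction: 5 μM Phome, 2 nM recombinant human sEH (Sf9-expressed), compound 0.0001–10 μM, 25 mM Hepes with 0.01% albumin, 15 min pre-incubation then 60 min at 30 °C; IC50 derived from % inhibition.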

| IC50 | Structure (SMILES) |
| --- | --- |
| 3 nM | CC(=O)Nc1ccc(O[C@H]2CO[C@H]3[C@@H]2OC[C@@H]3NC(=O)NC2CCCCC2)cc1 [Example 113, N-{4-[(3S,3aS,6S,6aR)-6-(3-Cyclohexyl-ureido)-hexahydro-furo[3,2-b]furan-3-yloxy]-phenyl}-acetamide] |
| 4 nM | CC1(C)CC(=O)c2cc(O[C@H]3CO[C@H]4[C@@H]3OC[C@@H]4NC(=O)NC3CCCCC3)ccc2O1 [Example 114, 1-Cyclohexyl-3-[(3S,3aR,6S,6aS)-6-(2,2-dimethyl-4-oxo-chroman-6-yloxy)-hexahydro-furo[3,2-b]furan-3-yl]-urea] |
| 3 nM | O=C(NC1CCCCC1)N[C@H]1CO[C@H]2[C@@H]1OC[C@@H]2Oc1ccccc1 [Example 115, 1-Cyclohexyl-3-((3S,3aR,6S,6aS)-6-phenoxy-hexahydro-furo[3,2-b]furan-3-yl)-urea] |
| 5 nM | N#CCc1cccc(O[C@H]2CO[C@H]3[C@@H]2OC[C@@H]3NC(=O)NC2CCCCC2)c1 [Example 117, 1-[(3S,3aR,6S,6aS)-6-(3-Cyano-methyl-phenoxy)-hexahydro-furo-[3,2-b]furan-3-yl]-3-cyclohexyl-urea] |
| 3 nM | O=C(NC1CCCCC1)N[C@H]1CO[C@H]2[C@@H]1OC[C@@H]2Oc1ccc2c(c1)C(=O)CC2 [Example 118, 1-Cyclohexyl-3-[(3S,3aR,6S,6aS)-6-(3-oxo-indan-5-yloxy)-hexahydro-furo[3,2-b]furan-3-yl]-urea] |
| 21 nM | CN1CCN(C(=O)c2ccc(O[C@H]3CO[C@H]4[C@@H]3OC[C@@H]4NC(=O)NC3CCCCC3)cc2)CC1 [Example 119, 1-Cyclohexyl-3-{(3S,3aR,6S,6aS)-6-[4-(4-methyl-piperazine-1-carbonyl)-phenoxy]-hexahydro-furo[3,2-b]furan-3-yl}-urea; trifluoroacetate] |
| 7 nM | O=C(NC1CCCCC1)N[C@H]1CO[C@H]2[C@@H]1OC[C@@H]2Oc1ccc(C(=O)N2CCOCC2)cc1 [Example 120, 1-Cyclohexyl-3-{(3S,3aR,6S,6aS)-6-[4-(morpholine-4-carbonyl)-phenoxy]-hexahydro-furo[3,2-b]furan-3-yl}-urea] |
| 1 nM | Cc1nc(-c2ccc(O[C@H]3CO[C@H]4[C@@H]3OC[C@@H]4NC(=O)NC3CCCCC3)cc2)no1 [Example 121, 1-Cyclohexyl-3-{(3S,3aR,6S,6aS)-6-[4-(5-methyl-[1,2,4]oxadiazol-3-yl)-phenoxy]-hexahydro-furo[3,2-b]furan-3-yl}-urea] |
| 2 nM | CCC(OC)(c1cccc(O[C@H]2CO[C@H]3[C@@H]2OC[C@@H]3NC(=O)NC2CCCCC2)c1)c1nccs1 (stereo partly drawn) [Example 122, 1-Cyclohexyl-3-{(3S,3aR,6S,6aS)-6-[3-(1-methoxy-1-thiazol-2-yl-propyl)-phenoxy]-hexahydro-furo[3,2-b]furan-3-yl}-urea] |
| 4 nM | O=C(NC1CCCCC1)N[C@H]1CO[C@H]2[C@@H]1OC[C@@H]2Oc1ccccc1CN1CCOCC1 [Example 123, 1-Cyclohexyl-3-[(3S,3aR,6S,6aS)-6-(2-morpholin-4-ylmethyl-phenoxy)-hexahydro-furo[3,2-b]furan-3-yl]-urea; trifluoroacetate] |
| 4 nM | CC1(c2ccc(O[C@H]3CO[C@H]4[C@@H]3OC[C@@H]4NC(=O)NC3CCCCC3)cc2)CCCCC1 [Example 124, 1-Cyclohexyl-3-{(3S,3aR,6S,6aS)-6-[4-(1-methyl-cyclohexyl)-phenoxy]-hexahydro-furo[3,2-b]furan-3-yl}-urea] |
| 3 nM | O=C(NC1CCCCC1)N[C@H]1CO[C@H]2[C@@H]1OC[C@@H]2Oc1cccc(C(F)(F)F)c1 [Example 125, 1-Cyclohexyl-3-[(3S,3aR,6S,6aS)-6-(3-trifluoromethyl-phenoxy)-hexa-hydro-furo[3,2-b]furan-3-yl]-urea] |
| 30 nM | O=C(NC1CCCCC1)N[C@H]1CO[C@H]2[C@@H]1OC[C@@H]2Oc1ccc(C(=O)N2CCNCC2)cc1 [Example 126, 1-Cyclohexyl-3-{(3S,3aR,6S,6aS)-6-[4-(piperazine-1-carbonyl)-phenoxy]-hexahydro-furo[3,2-b]furan-3-yl}-urea; trifluoroacetate] |
| 7 nM | O=C(NC1CCCCC1)N[C@H]1CO[C@H]2[C@@H]1OC[C@@H]2Oc1cccc(Oc2ccccn2)c1 [Example 127, 1-Cyclohexyl-3-{(3S,3aR,6S,6aS)-6-[3-(pyridin-2-yloxy)-phenoxy]-hexa-hydro-furo[3,2-b]furan-3-yl}-urea] |
| 10 nM | O=C(NC1CCCCC1)N[C@H]1CO[C@H]2[C@@H]1OC[C@@H]2Oc1cccc(CNC2CC2)c1 [Example 128, 1-Cyclohexyl-3-[(3S,3aR,6S,6aS)-6-(3-cyclopropylaminomethyl-phenoxy)-hexahydro-furo[3,2-b]furan-3-yl]-urea; trifluoroacetate] |
| 2 nM | Cc1nc(-c2cccc(O[C@H]3CO[C@H]4[C@@H]3OC[C@@H]4NC(=O)NC3CCCCC3)c2)no1 [Example 129, 1-Cyclohexyl-3-{(3S,3aR,6S,6aS)-6-[3-(5-methyl-[1,2,4]oxadiazol-3-yl)-phenoxy]-hexahydro-furo[3,2-b]furan-3-yl}-urea] |
| 38 nM | O=C(NC1CCCCC1)N[C@H]1CO[C@H]2[C@@H]1OC[C@@H]2Oc1cccn2ccnc12 [Example 130, 1-Cyclohexyl-3-[(3S,3aR,6S,6aS)-6-(imidazo[1,2-a]pyridin-8-yloxy)-hexa-hydro-furo[3,2-b]furan-3-yl]-urea] |
| 2 nM | O=C(NC1CCCCC1)N[C@H]1CO[C@H]2[C@@H]1OC[C@@H]2Oc1cc(F)ccc1Cl [Example 131, 1-[(3S,3aR,6S,6aS)-6-(2-Chloro-5-fluoro-phenoxy)-hexahydro-furo[3,2-b]furan-3-yl]-3-cyclohexyl-urea] |
| 2 nM | O=C(NC1CCCCC1)N[C@H]1CO[C@H]2[C@@H]1OC[C@@H]2Oc1cccc(Cl)c1 [Example 132, 1-[(3S,3aR,6S,6aS)-6-(3-Chloro-phenoxy)-hexahydro-furo[3,2-b]furan-3-yl]-3-cyclohexyl-urea] |
| < 1 nM | O=C(NC1CCCCC1)N[C@H]1CO[C@H]2[C@@H]1OC[C@@H]2Oc1cc(F)cc(F)c1 [Example 133, 1-Cyclohexyl-3-[(3S,3aR,6S,6aS)-6-(3,5-difluoro-phenoxy)-hexahydro-furo[3,2-b]furan-3-yl]-urea] |
| 20 nM | O=C(NC1CCCCC1)N[C@H]1CO[C@H]2[C@@H]1OC[C@@H]2Oc1ccccc1C(=O)N1CCOCC1 [Example 134, 1-Cyclohexyl-3-{(3S,3aR,6S,6aS)-6-[2-(morpholine-4-carbonyl)-phenoxy]-hexahydro-furo[3,2-b]furan-3-yl}-urea] |
| 20 nM | O=C(NC1CCCCC1)N[C@H]1CO[C@H]2[C@@H]1OC[C@@H]2Oc1ccccc1CN1CCCCC1 [Example 135, 1-Cyclohexyl-3-[(3S,3aR,6S,6aS)-6-(2-piperidin-1-ylmethyl-phenoxy)-hexahydro-furo[3,2-b]furan-3-yl]-urea; trifluoroacetate] |
| 220 nM | O=C(NC1CCCCC1)N[C@H]1CO[C@H]2[C@@H]1OC[C@@H]2Oc1ccccc1CNCC1CCCO1 (stereo partly drawn) [Example 136, 1-Cyclohexyl-3-[(3S,3aR,6S,6aS)-6-(2-{[(tetrahydro-furan-2-ylmethyl)-ao]-methyl}-phenoxy)-hexahydro-furo[3,2-b]furan-3-yl]-urea; trifluoroacetate] |
| 4 nM | O=C(NC1CCCCC1)N[C@H]1CO[C@H]2[C@@H]1OC[C@@H]2Oc1cccc2ccc(N3CCCC3)nc12 [Example 137, 1-Cyclohexyl-3-[(3S,3aR,6S,6aS)-6-(2-pyrrolidin-1-yl-quinolin-8-yloxy)-hexahydro-furo[3,2-b]furan-3-yl]-urea; trifluoroacetate] |
| 3 nM | O=C(NC1CCCCC1)N[C@H]1CO[C@H]2[C@@H]1OC[C@@H]2Oc1ccc(Br)cc1 [Example 138, 1-[(3S,3aR,6S,6aS)-6-(4-Bromo-phenoxy)-hexahydro-furo[3,2-b]furan-3-yl]-3-cyclohexyl-urea] |
| 2 nM | O=C(NC1CCCCC1)N[C@H]1CO[C@H]2[C@@H]1OC[C@@H]2Oc1cccc(Br)c1 [Example 139, 1-[(3S,3aR,6S,6aS)-6-(3-Bromo-phenoxy)-hexahydro-furo[3,2-b]furan-3-yl]-3-cyclohexyl-urea] |
| 3 nM | O=C(NC1CCCCC1)N[C@H]1CO[C@H]2[C@@H]1OC[C@@H]2Oc1cccc([N+](=O)[O-])c1 [Example 140, 1-Cyclohexyl-3-[(3S,3aR,6S,6aS)-6-(3-nitro-phenoxy)-hexahydro-furo[3,2-b]furan-3-yl]-urea] |
| 2 nM | CCOC(=O)c1cccc(O[C@H]2CO[C@H]3[C@@H]2OC[C@@H]3NC(=O)NC2CCCCC2)c1 [Example 141, 3-[(3S,3aS,6S,6aR)-6-(3-Cyclohexyl-ureido)-hexahydro-furo[3,2-b]furan-3-yloxy]-benzoic acid ethyl ester] |
| 30 nM | O=C(NC1CCCCC1)N[C@H]1CO[C@H]2[C@@H]1OC[C@@H]2Oc1cccc(N2CCNCC2)c1 [Example 142, 1-Cyclohexyl-3-[(3S,3aR,6S,6aS)-6-(3-piperazin-1-yl-phenoxy)-hexahydro-furo[3,2-b]furan-3-yl]-urea; trifluoroacetate] |

| Structure (SMILES) | IC50 |
| --- | --- |
| CC(C)(C)Oc1ccc(O[C@H]2CO[C@H]3[C@@H]2OC[C@@H]3NC(=O)NC2CCCCC2)cc1 [Example 116, 1-[(3S,3aR,6S,6aS)-6-(4-tert-Butoxy-phenoxy)-hexahydro-furo[3,2-b]furan-3-yl]-3-cyclohexyl-urea] | 3 nM |
